The supplement of paper PMC11451515

Legend:
Settings in all cases: 48 h
SEM cells [1] = test: AUC of viability dose-response curve (% viability x log10 dose units); higher = less sensitive
Method in brief: (§1)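 Leukemia cells adapted to each medium were seeded at 500 or 1000 cells/well in 1536-well plates and dosed with library compounds in DMSO at 11 threefold doses from 47 μM to 0.79 nM for 48 h at 37°C. CellTiter-Glo One luminescence was normalised per plate to DMSO and cell-free wells, then fitted with a four-parameter log-logistic model over log10 doses. Area under the curve was taken from this fit by the trapezoidal rule, with curves above full viability scaled and curves failing quality control removed.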

NOMO1 [2] = test: as above
Method in brief: as §1

P12-Ichikawa [3] = test: as above
Method in brief: as §1

SEM cells [4] = test: cell viability relative to DMSO control; higher = less cytotoxic
Method in brief: (§2)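 NOMO1 or SEM (500 cells/well) or P12-Ichikawa (1000 cells/well) leukemia cells were adapted for at least four passages in each medium. They were seeded in 1536-well plates (5 μl) and pin-dosed with library compounds in DMSO over an 11-point threefold series, 47 μM to 0.79 nM. CellTiter-Glo One luminescence was read after 48 h at 37°C. Viability is the per-plate percentage relative to DMSO wells, with cell-free wells as background.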

NOMO1 [5] = test: as above
Method in brief: as §2

P12-Ichikawa [6] = test: as above
Method in brief: as §2

Cc1cn(-c2cc(NC(=O)c3ccc(C)c(Nc4nccc(-c5cccnc5)n4)c3)cc(C(F)(F)F)c2)cn1
AUC of viability dose-response curve
Settings | NOMO1 [2] | P12-Ichikawa [3] | SEM cells [1]
HPLM + 10% dialyzed FBS | 436 | 328 | 377
RPMI 5 mM glucose + 10% FBS | 407 | 340 | 345
RPMI 5 mM glucose + 10% dialyzed FBS | 419 | 346 | 347

cell viability [%]
Settings | NOMO1 [5] | P12-Ichikawa [6] | SEM cells [4]
HPLM + 10% dialyzed FBS, 0.000781 µM | 100 | 102 | 83.5
HPLM + 10% dialyzed FBS, 0.00234 µM | 122 | 101 | 92.7
HPLM + 10% dialyzed FBS, 0.00702 µM | 123 | 108 | 97.1
HPLM + 10% dialyzed FBS, 0.0211 µM | 135 | 109 | 107
HPLM + 10% dialyzed FBS, 0.0632 µM | 130 | 110 | 107
HPLM + 10% dialyzed FBS, 0.19 µM | 117 | 107 | 109
HPLM + 10% dialyzed FBS, 0.569 µM | 103 | 106 | 95.2
HPLM + 10% dialyzed FBS, 1.71 µM | 88.8 | 12 | 52.4
HPLM + 10% dialyzed FBS, 5.12 µM | 95.3 | 13.1 | 40.9
HPLM + 10% dialyzed FBS, 15.4 µM | 95.2 | 9.96 | 37.3
HPLM + 10% dialyzed FBS, 46.1 µM | 114 | 10.8 | 35.4
RPMI 5 mM glucose + 10% FBS, 0.000781 µM | 99.7 | 112 | 106
RPMI 5 mM glucose + 10% FBS, 0.00234 µM | 111 | 111 | 120
RPMI 5 mM glucose + 10% FBS, 0.00702 µM | 115 | 114 | 108
RPMI 5 mM glucose + 10% FBS, 0.0211 µM | 127 | 117 | 124
RPMI 5 mM glucose + 10% FBS, 0.0632 µM | 113 | 113 | 111
RPMI 5 mM glucose + 10% FBS, 0.19 µM | 131 | 112 | 125
RPMI 5 mM glucose + 10% FBS, 0.569 µM | 117 | 110 | 110
RPMI 5 mM glucose + 10% FBS, 1.71 µM | 66.5 | 43.6 | 31.4
RPMI 5 mM glucose + 10% FBS, 5.12 µM | 61.3 | 11.4 | 31.6
RPMI 5 mM glucose + 10% FBS, 15.4 µM | 74.2 | 12.1 | 21.4
RPMI 5 mM glucose + 10% FBS, 46.1 µM | 68.4 | 11 | 17.5
RPMI 5 mM glucose + 10% dialyzed FBS, 0.000781 µM | 102 | 103 | 111
RPMI 5 mM glucose + 10% dialyzed FBS, 0.00234 µM | 109 | 113 | 106
RPMI 5 mM glucose + 10% dialyzed FBS, 0.00702 µM | 107 | 114 | 104
RPMI 5 mM glucose + 10% dialyzed FBS, 0.0211 µM | 106 | 112 | 110
RPMI 5 mM glucose + 10% dialyzed FBS, 0.0632 µM | 114 | 115 | 111
RPMI 5 mM glucose + 10% dialyzed FBS, 0.19 µM | 114 | 113 | 98.9
RPMI 5 mM glucose + 10% dialyzed FBS, 0.569 µM | 111 | 114 | 102
RPMI 5 mM glucose + 10% dialyzed FBS, 1.71 µM | 86.8 | 23.9 | 26.9
RPMI 5 mM glucose + 10% dialyzed FBS, 5.12 µM | 67.2 | 24.5 | 33.6
RPMI 5 mM glucose + 10% dialyzed FBS, 15.4 µM | 66.3 | 26.7 | 21.5
RPMI 5 mM glucose + 10% dialyzed FBS, 46.1 µM | 62.9 | 22.7 | 17.2

CCC[C@H]1C[C@H](C(=O)N[C@@H]([C@@H]2O[C@@H](SC)[C@@H](O)[C@@H](O)[C@H]2O)[C@H](C)Cl)N(C)C1
AUC of viability dose-response curve
Settings | NOMO1 [2] | P12-Ichikawa [3] | SEM cells [1]
HPLM + 10% dialyzed FBS | 459 | 465 | 447
RPMI 5 mM glucose + 10% FBS | 430 | 455 | 450
RPMI 5 mM glucose + 10% dialyzed FBS | 439 | 467 | 447

cell viability [%]
Settings | NOMO1 [5] | P12-Ichikawa [6] | SEM cells [4]
HPLM + 10% dialyzed FBS, 0.000781 µM | 102 | 103 | 79
HPLM + 10% dialyzed FBS, 0.00234 µM | 117 | 117 | 90.9
HPLM + 10% dialyzed FBS, 0.00702 µM | 106 | 115 | 91.2
HPLM + 10% dialyzed FBS, 0.0211 µM | 119 | 120 | 95.1
HPLM + 10% dialyzed FBS, 0.0632 µM | 128 | 119 | 100
HPLM + 10% dialyzed FBS, 0.19 µM | 121 | 124 | 94.1
HPLM + 10% dialyzed FBS, 0.569 µM | 131 | 123 | 130
HPLM + 10% dialyzed FBS, 1.71 µM | 118 | 124 | 106
HPLM + 10% dialyzed FBS, 5.12 µM | 124 | 125 | 109
HPLM + 10% dialyzed FBS, 15.4 µM | 137 | 118 | 98.4
HPLM + 10% dialyzed FBS, 46.1 µM | 114 | 127 | 99.9
RPMI 5 mM glucose + 10% FBS, 0.000781 µM | 119 | 105 | 101
RPMI 5 mM glucose + 10% FBS, 0.00234 µM | 115 | 113 | 114
RPMI 5 mM glucose + 10% FBS, 0.00702 µM | 108 | 112 | 117
RPMI 5 mM glucose + 10% FBS, 0.0211 µM | 118 | 121 | 101
RPMI 5 mM glucose + 10% FBS, 0.0632 µM | 112 | 132 | 132
RPMI 5 mM glucose + 10% FBS, 0.19 µM | 134 | 131 | 112
RPMI 5 mM glucose + 10% FBS, 0.569 µM | 123 | 137 | 112
RPMI 5 mM glucose + 10% FBS, 1.71 µM | 116 | 119 | 117
RPMI 5 mM glucose + 10% FBS, 5.12 µM | 129 | 130 | 110
RPMI 5 mM glucose + 10% FBS, 15.4 µM | 126 | 130 | 126
RPMI 5 mM glucose + 10% FBS, 46.1 µM | 143 | 134 | 124
RPMI 5 mM glucose + 10% dialyzed FBS, 0.000781 µM | 112 | 113 | 66.4
RPMI 5 mM glucose + 10% dialyzed FBS, 0.00234 µM | 117 | 122 | 84.7
RPMI 5 mM glucose + 10% dialyzed FBS, 0.00702 µM | 120 | 115 | 94
RPMI 5 mM glucose + 10% dialyzed FBS, 0.0211 µM | 113 | 115 | 87.3
RPMI 5 mM glucose + 10% dialyzed FBS, 0.0632 µM | 114 | 128 | 97.7
RPMI 5 mM glucose + 10% dialyzed FBS, 0.19 µM | 119 | 124 | 89.6
RPMI 5 mM glucose + 10% dialyzed FBS, 0.569 µM | 122 | 126 | 110
RPMI 5 mM glucose + 10% dialyzed FBS, 1.71 µM | 109 | 119 | 94.3
RPMI 5 mM glucose + 10% dialyzed FBS, 5.12 µM | 129 | 130 | 97.7
RPMI 5 mM glucose + 10% dialyzed FBS, 15.4 µM | 127 | 122 | 110
RPMI 5 mM glucose + 10% dialyzed FBS, 46.1 µM | 130 | 121 | 101
